Assay results: PMC7270110, “Labeled oxytocin administered via the intranasal route reaches the brain in rhesus macaques” (Nature Communications, 2020)
Several values for one entry are separate records, joined by “and”; a condition that tells them apart may be missing. Equal entries are not always repeated. Where two headings read alike, the source gives them in different places.

Legend:
[1] = CSF concentration of endogenous d0OT by LC-MS/MS; type: in vivo, rhesus macaques (Macaca mulatta)
Procedure: (§1) The six monkeys were dosed once a week, for 4 consecutive weeks, with each DOSE–ROUTE condition of d5OT (40 IU IN, 40 IU IV, 80 IU IN, or 80 IU IV). Each DOSE–ROUTE condition was assigned using a Latin square randomization (Table 4). Sessions were separated by at least 6 days. During each session, CSF (750 µl) and blood (5 ml) samples were drawn immediately prior to (T = 0) and following (T = 60 and 120 min) each administration of d5OT.
(§2) Monkeys were divided into three groups, each with two monkeys; each group received the following in a terminal study at the 5th week: Group 1 (Monkeys ID# 1 and ID# 5) received 40 IU of d5OT IN, Group 2 received 80 IU of d5OT IN (Monkeys ID# 2 and ID# 4) and Group 3 received 80 IU of d5OT IV (Monkeys ID# 3 and ID# 6). Animals were perfused on average, 140 ± 7 (mean ± SD) min after d5OT administration (range = 135–149 min) (Table 4). Plasma and CSF were drawn just before administration of d5OT, at the midpoint between d5OT administration and perfusion (~60 min post-d5OT administration), and just before perfusion.
Chemicals: An unlabeled standard for d0OT and deuterated standard for d5OT were purchased from Sigma-Aldrich (St. Louis, MO); d10OT was purchased for use as an internal standard through a custom order from Cayman Chemical (Ann Arbor, MI). All other reagents were commercially available, and we purchased LC or MS grade chemicals when available. Plasma and CSF sample preparation for LC–MS/MS analysis. CSF and plasma samples were collected as described above. Using 15 ml polystyrene tubes, 1.0 ml of each standard, quality control (QC), or plasma sample was combined with 30 µl of internal standard mixture (34 ng/ml d10OT in 50:50 acetonitrile (ACN):water, v–v) and incubated for 20 min on ice. Volumes used for CSF samples ranged from 0.4 to 1.0 ml, depending on sample availability. CSF samples <1.0 ml were brought to a final volume of 1.0 ml using charcoal-stripped serum, prior to addition of internal standard. To each tube, 2 ml of ice-cold ACN was added, vortexed thoroughly, and centrifuged at 2500 × g for 10 min at 4 °C. The supernatants were transferred to new 13 mm × 100 mm polypropylene tubes and evaporated in a 37 °C water bath, under forced air, to a volume of <1 ml. […]
(§3) Solid-phase extraction (SPE) columns (Strata-X-Drug B, 60 mg/6 ml, Phenomenex, Torrance, CA) were conditioned prior to use by adding 2 ml of methanol, followed by 2 ml of water, and 2 ml of 0.2 M ammonium acetate (pH 3.0) in water; each was allowed to flow through by gravity before the next was added. […] After a 15 min incubation at 4 °C, plates were filtered into microtiter plates (Shimadzu, Kyoto, Japan) using a positive pressure manifold (8 min at 5 psi, followed by 15 s at 15 psi; Biotage, Uppsala, Sweden), and analyzed. […]

[2] = Plasma concentration of endogenous d0OT by LC-MS/MS; type: in vivo, rhesus macaques (Macaca mulatta); details: LLOQ 10 pg/ml, MDL 4 pg/ml
Procedure: as §1
(§4) Chemicals: An unlabeled standard for d0OT and deuterated standard for d5OT were purchased from Sigma-Aldrich (St. Louis, MO); d10OT was purchased for use as an internal standard through a custom order from Cayman Chemical (Ann Arbor, MI). All other reagents were commercially available, and we purchased LC or MS grade chemicals when available. Plasma and CSF sample preparation for LC–MS/MS analysis. […]
as §3

[3] = humans; 24 IU OT (not labelled) intranasally; 75 minutes post-administration; radioimmunoassay; ref Striepens et al., Sci Rep 2013; cited from earlier work
Procedure: page 8: 4. It is surprising that no CSF d5 OT was detected at 60 or 120 minutes in CSF after IN administration. […] In our previous study (Lee et al., Mol Psychiatry 2018), after IN administration, CSF d5OT concentration at 60 minutes was quantified in 4 monkeys as follows: 11.28, 15.99, 67.65 and 221.62 pg/ml. In this previous study, the limit of quantification (LOQ) for d5OT was 10 pg/ml. The LOQ of d5OT in the present study was 100 pg/ml and the method dete ...

[4] = CSF concentration of d5OT by LC-MS/MS after IN or IV d5OT; type: in vivo, rhesus macaques (Macaca mulatta)
Procedure: as §1, §2
Chemicals: An unlabeled standard for d0OT and deuterated standard for d5OT were purchased from Sigma-Aldrich (St. Louis, MO); d10OT was purchased for use as an internal standard through a custom order from Cayman Chemical (Ann Arbor, MI). All other reagents were commercially available, and we purchased LC or MS grade chemicals when available. Plasma and CSF sample preparation for LC–MS/MS analysis. CSF and plasma samples were collected as described above. Using 15 ml polystyrene tubes, 1.0 ml of each standard, quality control (QC), or plasma sample was combined with 30 µl of internal standard mixture (34 ng/ml d10OT in 50:50 acetonitrile (ACN):water, v–v) and incubated for 20 min on ice. Volumes used for CSF samples ranged from 0.4 to 1.0 ml, depending on sample availability. CSF samples <1.0 ml were brought to a final volume of 1.0 ml using charcoal-stripped serum, prior to addition of internal standard. To each tube, 2 ml of ice-cold ACN was added, vortexed thoroughly, and centrifuged at 2500 × g for 10 min at 4 °C. The supernatants were transferred to new 13 mm × 100 mm polypropylene tubes and evaporated in a 37 °C water bath, under forced air, to a volume of <1 ml. We then added 5.5 ml of 0.2 M ammonium acetate (pH 3.0) in water, capped the tubes and mixed by inversion, before centrifugation at 2500 × g for 10 min at 4 °C.
as §3, with “added. The supernatants from the previous step were then added to SPE columns (one supernatant per column) by pouring. Columns were washed with 2 ml ammonium acetate (pH 3.0) in water, followed by 2 ml water and 2 ml ACN, and dried for 5 min in a vacuum manifold (5 in Hg; Millipore, Burlington, MA). OT was eluted with 2 × 1 ml 0.2% ammonium hydroxide in methanol into 12 mm × 75 mm polypropylene tubes and evaporated to dryness under forced air in a 37 °C water bath.” for “added.”

[5] = Plasma concentration of d5OT by LC-MS/MS after IN or IV d5OT; type: in vivo, rhesus macaques (Macaca mulatta); details: for level at 1 h: rhesus monkey, plasma, 60 min, present study
Procedure: as §1, §2
as §4, with “analysis. CSF and plasma samples were collected as described above.” for “analysis.”
as §3

SMILES	CSF concentrations of d0OT at necropsy ([1]; 40 IU IN condition, monkey #1)	CSF concentrations of d0OT at necropsy ([1]; 40 IU IN condition, one monkey)	CSF concentrations of d0OT at necropsy ([1]; 80 IU IN condition, two monkeys, listed as d0OT)	CSF concentrations of d0OT at necropsy ([1]; 80 IU IV condition, two monkeys, listed as d0OT)	d0OT in plasma [2]	CSF OT concentration [3]	d5OT in CSF ([4]; 120 min after IV administration (40 and 80 IU), LC-MS/MS, MDL 38 pg/ml)	d5OT in CSF ([4]; after IN administration of either dose (40 or 80 IU), any timepoint, LC-MS/MS, MDL 38 pg/ml)	d5OT in CSF ([4]; just prior to necropsy, after 80 IU IV, single monkey, LOQ 100 pg/ml)	d5OT in CSF ([4]; timepoint 60 min after 40 IU IV, N = 6, LC-MS/MS, LOQ 100 pg/ml, MDL 38 pg/ml)	d5OT in CSF ([4]; timepoint 60 min after 80 IU IV, N = 6, LC-MS/MS, LOQ 100 pg/ml, MDL 38 pg/ml)	Concentrations of d5OT in the plasma ([5]; after 40 IU IN, all concentrations, LOQ 100 pg/ml)	level at 1 h ([5]; 80 IU IN condition, read-out: Plasma d5OT)	level at 1 h ([5]; IV condition, read-out: Mean plasma concentration of d5OT)
CC[C@H](C)[C@@H]1NC(=O)[C@H](Cc2ccc(O)cc2)NC(=O)[C@@H](N)CSSC[C@@H](C(=O)N2CCC[C@H]2C(=O)N[C@@H](CC(C)C)C(=O)NCC(N)=O)NC(=O)[C@H](CC(N)=O)NC(=O)[C@H](CCC(N)=O)NC1=O [OT, oxytocin]	not quantified	12 pg/mL	16 pg/mL and 10 pg/mL	16 pg/mL and 14 pg/mL	not detected	approximately 30 pg/ml	–	–	–	–	–	–	–	–
CC[C@H](C)[C@@H]1NC(=O)[C@H](Cc2ccc(O)cc2)NC(=O)[C@@H](N)CSSC[C@@H](C(=O)N2CCC[C@H]2C(=O)N[C@@H](CC(C)C)C(=O)NCC(N)=O)NC(=O)[C@H](CC(N)=O)NC(=O)[C@H](CCC(N)=O)NC1=O [d5OT]	–	–	–	–	–	–	no d5OT detected	no d5OT detected	below the limit of quantification	detected	detected	below the level of quantification	0.284 ± 0.288 ng/mL	1.99 ± 0.476 ng/mL
